Here are results for 22 compounds from ChEMBL document CHEMBL6083264, “Superacid-Synthesized Fluorinated Diamines Act as Selective hCA IV Inhibitors” (J Med Chem, 2024).

Some targets named below: Carbonic anhydrase 1 (Homo sapiens, UniProt P00915); Carbonic anhydrase 9 (Homo sapiens, UniProt Q16790); Carbonic anhydrase 2 (Homo sapiens, UniProt P00918); Carbonic anhydrase 12 (Homo sapiens, UniProt O43570).
The target of assay [1] is T1, Carbonic anhydrase 4 (Homo sapiens, UniProt P22748).
Description: Inhibition of human CA-IV-catalysed CO2 hydration activity incubated for 15 min by Phenol red dye based assay
The target of assay [2] is T1, Carbonic anhydrase 4. The source holds these as a separate data set.
Description: Inhibition of human CA-IV

One may read the Ki as a measure of affinity in units of concentration, obtained from inhibition or displacement. Lower therefore signals higher affinity. One may read the IC50 as the concentration that inhibits the measured activity by half.

Carbonic anhydrase 1, sequence (P00915 whole entry): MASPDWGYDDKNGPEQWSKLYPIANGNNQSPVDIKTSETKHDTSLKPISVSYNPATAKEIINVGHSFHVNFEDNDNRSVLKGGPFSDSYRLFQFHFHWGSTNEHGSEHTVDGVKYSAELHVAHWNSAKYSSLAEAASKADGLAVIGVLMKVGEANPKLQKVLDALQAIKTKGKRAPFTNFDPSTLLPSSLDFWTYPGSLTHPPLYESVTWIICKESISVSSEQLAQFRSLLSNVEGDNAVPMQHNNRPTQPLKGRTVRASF
T1 sequence (P22748 whole entry): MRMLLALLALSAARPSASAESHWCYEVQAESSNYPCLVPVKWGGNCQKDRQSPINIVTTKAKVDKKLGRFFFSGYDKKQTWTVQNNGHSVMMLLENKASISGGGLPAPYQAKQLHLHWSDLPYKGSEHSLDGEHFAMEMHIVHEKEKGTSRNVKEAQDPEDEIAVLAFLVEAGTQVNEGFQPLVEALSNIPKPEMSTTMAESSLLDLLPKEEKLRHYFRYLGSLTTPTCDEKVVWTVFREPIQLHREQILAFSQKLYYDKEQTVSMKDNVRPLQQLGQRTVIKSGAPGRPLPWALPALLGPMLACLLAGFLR
Carbonic anhydrase 12, sequence (O43570 whole entry): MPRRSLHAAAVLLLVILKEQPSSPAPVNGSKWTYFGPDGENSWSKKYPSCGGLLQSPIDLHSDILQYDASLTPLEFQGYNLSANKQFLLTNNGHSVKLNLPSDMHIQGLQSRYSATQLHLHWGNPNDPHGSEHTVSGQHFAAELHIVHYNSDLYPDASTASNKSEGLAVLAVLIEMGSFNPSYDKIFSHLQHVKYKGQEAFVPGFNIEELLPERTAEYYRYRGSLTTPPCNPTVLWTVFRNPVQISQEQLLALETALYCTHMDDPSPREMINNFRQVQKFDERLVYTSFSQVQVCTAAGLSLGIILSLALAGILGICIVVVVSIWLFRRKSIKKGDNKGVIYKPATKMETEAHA
Description for Carbonic anhydrase 12: Inhibition of human CA-XII-catalysed CO2 hydration activity incubated for 15 min by Phenol red dye based assay
Description for Carbonic anhydrase 2: Inhibition of human CA-II-catalysed CO2 hydration activity incubated for 15 min by Phenol red dye based assay
Description for Carbonic anhydrase 9: Inhibition of human CA-IX-catalysed CO2 hydration activity incubated for 15 min by Phenol red dye based assay

For `CC(F)(F)CNCCCCN1C(=O)c2ccccc2C1=O`, the Ki on Carbonic anhydrase 4 [1] and at Carbonic anhydrase 1 was > 100 µM each time.
For the compound `CN(CC(F)CN)S(=O)(=O)c1ccc([N+](=O)[O-])cc1` (centres undefined), the Ki was 89 µM at Carbonic anhydrase 9; 20.1 µM at Carbonic anhydrase 4 [1]; > 100 µM at Carbonic anhydrase 1; 0.79 µM at Carbonic anhydrase 2; 3.65 µM at Carbonic anhydrase 12.
For `CCCNCCCCN`, in that order: 3.08 µM, 0.093 µM, > 100 µM, > 100 µM and 28.6 µM.
For `CC(F)(F)CNCCCN`, the Ki at Carbonic anhydrase 1 and on Carbonic anhydrase 12 was > 100 µM each time.
Take `CN(CC(F)CCl)S(=O)(=O)c1ccc([N+](=O)[O-])cc1` (centres undefined): the Ki on Carbonic anhydrase 9, on Carbonic anhydrase 4 [1], on Carbonic anhydrase 1, at Carbonic anhydrase 2 and on Carbonic anhydrase 12 was > 100 µM throughout.
For the compound `CC(=O)N1N=C(c2ccc(S(N)(=O)=O)cc2)CC1c1c(Cl)cccc1Cl` (centres undefined), on Carbonic anhydrase 4 [1], the Ki worked out at 0.0177 µM.
For the compound `CC(F)(F)CN(CCCN1C(=O)c2ccccc2C1=O)S(=O)(=O)c1ccc([N+](=O)[O-])cc1`, the Ki on Carbonic anhydrase 9, on Carbonic anhydrase 4 [1] and at Carbonic anhydrase 1 was > 100 µM throughout.
On to `CN(CC(F)CN1C(=O)c2ccccc2C1=O)S(=O)(=O)c1ccc([N+](=O)[O-])cc1` (centres undefined), for which the Ki on Carbonic anhydrase 9, at Carbonic anhydrase 4 [1], at Carbonic anhydrase 1, on Carbonic anhydrase 2 and on Carbonic anhydrase 12 was > 100 µM throughout.
Turning to `CC(F)(F)CNCCCN1C(=O)c2ccccc2C1=O`, the Ki at Carbonic anhydrase 9, at Carbonic anhydrase 1 and at Carbonic anhydrase 12 was > 100 µM each time.
For `CC(F)CNCCCN` (centres undefined), the Ki on Carbonic anhydrase 9 is 1.44 µM; on Carbonic anhydrase 4 [1], 0.034 µM; on Carbonic anhydrase 1, > 100 µM; on Carbonic anhydrase 2, 36.9 µM; on Carbonic anhydrase 12, > 100 µM.
`CC(F)(F)CN(CCCCN1C(=O)c2ccccc2C1=O)S(=O)(=O)c1ccc([N+](=O)[O-])cc1`: the Ki at Carbonic anhydrase 9, at Carbonic anhydrase 4 [1], at Carbonic anhydrase 1 and on Carbonic anhydrase 2 was > 100 µM throughout.
Consider `CC(F)CN(CCCCN1C(=O)c2ccccc2C1=O)S(=O)(=O)c1ccc([N+](=O)[O-])cc1` (centres undefined), for which the Ki was > 100 µM on Carbonic anhydrase 9; > 100 µM on Carbonic anhydrase 4 [1]; > 100 µM at Carbonic anhydrase 1; 34 µM on Carbonic anhydrase 2; 0.64 µM at Carbonic anhydrase 12.
For the compound `CC(F)CNCCCN1C(=O)c2ccccc2C1=O` (centres undefined), the Ki at Carbonic anhydrase 9 was > 100 µM; at Carbonic anhydrase 4 [1], 0.13 µM; on Carbonic anhydrase 1, > 100 µM; at Carbonic anhydrase 2 it was 4.26 µM; on Carbonic anhydrase 12 it was > 100 µM.
On to `O=C1c2ccccc2C(=O)N1CC(F)CNS(=O)(=O)c1ccc([N+](=O)[O-])cc1` (centres undefined), for which the Ki on Carbonic anhydrase 9 was > 100 µM; at Carbonic anhydrase 4 [1], > 100 µM; at Carbonic anhydrase 1 it was > 100 µM; at Carbonic anhydrase 2, 0.076 µM; on Carbonic anhydrase 12, > 100 µM.
As for `CC(F)(F)CNCCCCN`, the Ki at Carbonic anhydrase 1, at Carbonic anhydrase 2 and on Carbonic anhydrase 12 was > 100 µM throughout.
In the case of `O=[N+]([O-])c1ccc(S(=O)(=O)NCC(F)CCl)cc1` (centres undefined), the Ki is 20 µM at Carbonic anhydrase 9; > 100 µM at Carbonic anhydrase 4 [1]; 3.02 µM on Carbonic anhydrase 1; 0.026 µM at Carbonic anhydrase 2; 0.68 µM on Carbonic anhydrase 12.
Regarding `CC(F)CN(CCCN1C(=O)c2ccccc2C1=O)S(=O)(=O)c1ccc([N+](=O)[O-])cc1` (centres undefined), the Ki at Carbonic anhydrase 9 was > 100 µM; on Carbonic anhydrase 4 [1] it was > 100 µM; at Carbonic anhydrase 1, > 100 µM; at Carbonic anhydrase 2 it was 78.4 µM; on Carbonic anhydrase 12 it was 7 µM.
On to `CCCNCCCN`, for which the Ki at Carbonic anhydrase 9 is 2.95 µM; on Carbonic anhydrase 4 [1], 0.095 µM; at Carbonic anhydrase 1, > 100 µM; on Carbonic anhydrase 2, > 100 µM; at Carbonic anhydrase 12, 52.7 µM.
Turning to `CC(F)CNCCCCN1C(=O)c2ccccc2C1=O` (centres undefined), the Ki was 0.026 µM on Carbonic anhydrase 9; 0.074 µM on Carbonic anhydrase 4 [1]; 0.25 µM on Carbonic anhydrase 1; 0.012 µM at Carbonic anhydrase 2; 0.006 µM on Carbonic anhydrase 12.
For `CC(F)CN(CCCN)S(=O)(=O)c1ccc([N+](=O)[O-])cc1` (centres undefined) the same measures were > 100 µM, 51.2 µM, > 100 µM, 0.72 µM and 5.2 µM.
Turning to `CC(F)CNCCCCN` (centres undefined), the Ki on Carbonic anhydrase 9 was 0.38 µM; on Carbonic anhydrase 4 [1], 0.028 µM; at Carbonic anhydrase 1, > 100 µM; at Carbonic anhydrase 2 it was 63.7 µM; at Carbonic anhydrase 12, > 100 µM.
On to `CC(F)CNS(=O)(=O)c1ccc([N+](=O)[O-])cc1` (centres undefined), for which the Ki at Carbonic anhydrase 9 stood at 2.2 µM; at Carbonic anhydrase 4 [1] it was 0.071 µM; on Carbonic anhydrase 1, 4.5 µM; on Carbonic anhydrase 2, 2.4 µM; at Carbonic anhydrase 12, 4.2 µM. Besides, inhibition against Carbonic anhydrase 4 [2] was half-maximal at 0.071 µM (IC50).
